From ChEMBL document CHEMBL1201862, “PubChem BioAssay data set” (2004)
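These data come from cells grown in 96-well plates and exposed to compound for 48 hours at five concentrations. GI50 marks 50% less growth.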 Active and inactive are the calls of the source. Cut-off read from the data, not from the text of the source: active = GI50 up to about 1.1 µM and inactive = higher.

Key:
Assay in all cases: growth of human tumour cells (NCI), 48 h
LOX IMVI = tested on: LOX IMVI
Malme-3M = tested on: Malme-3M
EKVX = tested on: EKVX
A498 = tested on: A498
SR = tested on: SR
UO-31 = tested on: UO-31
DMS-273 = tested on: DMS-273
SN12C = tested on: SN12C
NCI-H522 = tested on: NCI-H522
SNB-75 = tested on: SNB-75
CCRF-CEM = tested on: CCRF-CEM
786-0 = tested on: 786-0
HCT-15 = tested on: HCT-15
OVCAR-4 = tested on: OVCAR-4
U-251 = tested on: U-251
SW-620 = tested on: SW-620
M19-MEL = tested on: M19-MEL
HOP-92 = tested on: HOP-92
HCT-116 = tested on: HCT-116
SF-268 = tested on: SF-268
SNB-19 = tested on: SNB-19
LXFL 529 = tested on: LXFL 529
KM-20L2 = tested on: KM-20L2
NCI-H23 = tested on: NCI-H23
SNB-78 = tested on: SNB-78
DLD-1 = tested on: DLD-1
HOP-18 = tested on: HOP-18
UACC-62 = tested on: UACC-62
TK-10 = tested on: TK-10
HOP-62 = tested on: HOP-62
HT-29 = tested on: HT-29
NCI-H460 = tested on: NCI-H460
SK-MEL-28 = tested on: SK-MEL-28
KM12 = tested on: KM12
UACC-257 = tested on: UACC-257
HL-60 = tested on: HL-60
M14 = tested on: M14
SF-295 = tested on: SF-295
MOLT-4 = tested on: MOLT-4
OVCAR-5 = tested on: OVCAR-5
HCC 2998 = tested on: HCC 2998
OVCAR-8 = tested on: OVCAR-8
A549 = tested on: A549
SF-539 = tested on: SF-539
XF498 = tested on: XF498
OVCAR-3 = tested on: OVCAR-3
COLO 205 = tested on: COLO 205
DMS-114 = tested on: DMS-114
SK-MEL-5 = tested on: SK-MEL-5
ACHN = tested on: ACHN
K562 = tested on: K562
IGROV-1 = tested on: IGROV-1
CAKI-1 = tested on: CAKI-1
SK-MEL-2 = tested on: SK-MEL-2
SK-OV-3 = tested on: SK-OV-3
RPMI-8226 = tested on: RPMI-8226
RXF 393 = tested on: RXF 393
RXF 631 = tested on: RXF 631
NCI-H226 = tested on: NCI-H226

## COc1ccc(/C=C/C(=O)C(C)C)cc1
LOX IMVI
  GI50: 32.9 µM (inactive)
Malme-3M
  GI50: 42 µM (inactive)
EKVX
  GI50: 45.3 µM (inactive)
A498
  GI50: 35.5 µM (inactive)
SR
  GI50: 25.2 µM (inactive)
UO-31
  GI50: 80.2 µM (inactive)
DMS-273
  GI50: 38.5 µM (inactive)
SN12C
  GI50: 54.3 µM (inactive)
NCI-H522
  GI50: 20.6 µM (inactive)
SNB-75
  GI50: 40.6 µM (inactive)
CCRF-CEM
  GI50: 35.9 µM (inactive)
786-0
  GI50: 71.3 µM (inactive)
HCT-15
  GI50: 27.2 µM
OVCAR-4
  GI50: 47.9 µM (inactive)
U-251
  GI50: 34.1 µM (inactive)
SW-620
  GI50: 33 µM (inactive)
M19-MEL
  GI50: 59.6 µM (inactive)
HOP-92
  GI50: 54.8 µM (inactive)
HCT-116
  GI50: 49.8 µM (inactive)
SF-268
  GI50: 42.3 µM (inactive)
SNB-19
  GI50: 46.7 µM (inactive)
LXFL 529
  GI50: 21.7 µM (inactive)
KM-20L2
  GI50: 25.1 µM (inactive)
NCI-H23
  GI50: 32.6 µM (inactive)
SNB-78
  GI50: 14.9 µM (inactive)
DLD-1
  GI50: 63.1 µM (inactive)
HOP-18
  GI50: 41.4 µM (inactive)
UACC-62
  GI50: 45 µM (inactive)
TK-10
  GI50: 92 µM (inactive)
HOP-62
  GI50: 43.8 µM (inactive)
HT-29
  GI50: 29 µM (inactive)
NCI-H460
  GI50: 26.8 µM (inactive)
SK-MEL-28
  GI50: > 100 µM (inactive)
KM12
  GI50: 33.6 µM (inactive)
UACC-257
  GI50: 63.7 µM (inactive)
HL-60
  GI50: 22.9 µM (inactive)
M14
  GI50: 28.3 µM (inactive)
SF-295
  GI50: 31.6 µM (inactive)
MOLT-4
  GI50: 33.2 µM (inactive)
OVCAR-5
  GI50: > 100 µM (inactive)
HCC 2998
  GI50: > 100 µM (inactive)
OVCAR-8
  GI50: 34.8 µM (inactive)
A549
  GI50: 69.2 µM (inactive)
SF-539
  GI50: 46.2 µM (inactive)
XF498
  GI50: > 100 µM (inactive)
OVCAR-3
  GI50: 25.9 µM (inactive)
COLO 205
  GI50: 40 µM (inactive)
DMS-114
  GI50: 15.2 µM (inactive)
SK-MEL-5
  GI50: 48.1 µM (inactive)
ACHN
  GI50: 50.9 µM (inactive)
K562
  GI50: 32.8 µM (inactive)
IGROV-1
  GI50: > 100 µM (inactive)
CAKI-1
  GI50: 44.8 µM (inactive)
SK-MEL-2
  GI50: 27.7 µM (inactive)
SK-OV-3
  GI50: 31 µM (inactive)

## CC(C)C(=S)N(C)O
LOX IMVI
  GI50: 11.8 µM (inactive)
Malme-3M
  GI50: 53.7 µM (inactive)
EKVX
  GI50: 23.1 µM (inactive)
A498
  GI50: 19.1 µM (inactive)
SR
  GI50: 0.481 µM (active)
UO-31
  GI50: 9.64 µM (inactive)
SN12C
  GI50: 26.6 µM (inactive)
NCI-H522
  GI50: 6.08 µM (inactive)
SNB-75
  GI50: 22.4 µM (inactive)
CCRF-CEM
  GI50: 0.502 µM (active)
786-0
  GI50: 18.3 µM (inactive)
HCT-15
  GI50: 24.2 µM
OVCAR-4
  GI50: 9.89 µM (inactive)
U-251
  GI50: 28.4 µM (inactive)
SW-620
  GI50: 1.52 µM (inactive)
M19-MEL
  GI50: 11.4 µM (inactive)
HOP-92
  GI50: 47.8 µM (inactive)
HCT-116
  GI50: 2.29 µM (inactive)
SF-268
  GI50: 27.6 µM (inactive)
SNB-19
  GI50: > 29.2 µM (inactive)
LXFL 529
  GI50: 2.39 µM (inactive)
KM-20L2
  GI50: 14.5 µM (inactive)
NCI-H23
  GI50: 29.8 µM (inactive)
SNB-78
  GI50: 61.2 µM (inactive)
DLD-1
  GI50: 2.73 µM (inactive)
RPMI-8226
  GI50: 0.518 µM (active)
UACC-62
  GI50: 10.1 µM (inactive)
TK-10
  GI50: > 51.3 µM (inactive)
HOP-62
  GI50: 24.5 µM (inactive)
HT-29
  GI50: 1.46 µM (inactive)
NCI-H460
  GI50: 5.69 µM (inactive)
SK-MEL-28
  GI50: 37.6 µM (inactive)
KM12
  GI50: 17.7 µM (inactive)
RXF 393
  GI50: 98.9 µM (inactive)
UACC-257
  GI50: 29.1 µM (inactive)
HL-60
  GI50: 1.35 µM (inactive)
M14
  GI50: 21.6 µM (inactive)
SF-295
  GI50: 16.8 µM (inactive)
MOLT-4
  GI50: 0.809 µM (active)
OVCAR-5
  GI50: > 65.5 µM (inactive)
HCC 2998
  GI50: 40.2 µM (inactive)
OVCAR-8
  GI50: 13.9 µM (inactive)
A549
  GI50: 12.4 µM (inactive)
SF-539
  GI50: 25.6 µM (inactive)
OVCAR-3
  GI50: 2.82 µM (inactive)
COLO 205
  GI50: 0.35 µM (active)
DMS-114
  GI50: 2.43 µM (inactive)
SK-MEL-5
  GI50: 8.02 µM (inactive)
ACHN
  GI50: 31 µM (inactive)
K562
  GI50: 0.42 µM (active)
RXF 631
  GI50: 11.7 µM (inactive)
IGROV-1
  GI50: > 62.5 µM (inactive)
CAKI-1
  GI50: 19.9 µM (inactive)
SK-MEL-2
  GI50: 24.5 µM (inactive)
NCI-H226
  GI50: 44 µM (inactive)
SK-OV-3
  GI50: 55.3 µM (inactive)

## CC(=O)NC1=C(NCC(C)C)C(=O)c2ccccc2C1=O
LOX IMVI
  GI50: 15.5 µM (inactive)
Malme-3M
  GI50: 18.9 µM (inactive)
EKVX
  GI50: 25 µM (inactive)
A498
  GI50: 83.2 µM (inactive)
UO-31
  GI50: 18 µM (inactive)
DMS-273
  GI50: 14.4 µM (inactive)
SN12C
  GI50: 16.9 µM (inactive)
SNB-75
  GI50: 16.9 µM (inactive)
CCRF-CEM
  GI50: 7.18 µM (inactive)
786-0
  GI50: 14.6 µM (inactive)
HCT-15
  GI50: 17.7 µM
OVCAR-4
  GI50: 69.2 µM (inactive)
U-251
  GI50: 40.2 µM (inactive)
SW-620
  GI50: 16.5 µM (inactive)
M19-MEL
  GI50: 18.7 µM (inactive)
HOP-92
  GI50: 14.3 µM (inactive)
HCT-116
  GI50: 20.3 µM (inactive)
SF-268
  GI50: 20.5 µM (inactive)
SNB-19
  GI50: 38.3 µM (inactive)
LXFL 529
  GI50: 16.1 µM (inactive)
KM-20L2
  GI50: 21.2 µM (inactive)
NCI-H23
  GI50: 20 µM (inactive)
SNB-78
  GI50: 31.1 µM (inactive)
DLD-1
  GI50: 19 µM (inactive)
RPMI-8226
  GI50: 37.3 µM (inactive)
HOP-18
  GI50: 12.8 µM (inactive)
UACC-62
  GI50: 18 µM (inactive)
TK-10
  GI50: 20.7 µM (inactive)
HOP-62
  GI50: 89.5 µM (inactive)
HT-29
  GI50: 41 µM (inactive)
NCI-H460
  GI50: 34.7 µM (inactive)
SK-MEL-28
  GI50: 17.1 µM (inactive)
KM12
  GI50: 42.9 µM (inactive)
RXF 393
  GI50: 12.5 µM (inactive)
UACC-257
  GI50: 18.8 µM (inactive)
HL-60
  GI50: 2.76 µM (inactive)
M14
  GI50: 18.2 µM (inactive)
SF-295
  GI50: 37.9 µM (inactive)
MOLT-4
  GI50: 29.4 µM (inactive)
OVCAR-5
  GI50: 65.9 µM (inactive)
HCC 2998
  GI50: > 100 µM (inactive)
OVCAR-8
  GI50: 22.1 µM (inactive)
A549
  GI50: 54.3 µM (inactive)
SF-539
  GI50: 17.3 µM (inactive)
XF498
  GI50: 14 µM (inactive)
OVCAR-3
  GI50: 16.6 µM (inactive)
COLO 205
  GI50: > 100 µM (inactive)
DMS-114
  GI50: 14.7 µM (inactive)
SK-MEL-5
  GI50: 19.9 µM (inactive)
ACHN
  GI50: > 100 µM (inactive)
K562
  GI50: 15.3 µM (inactive)
IGROV-1
  GI50: 43.5 µM (inactive)
CAKI-1
  GI50: 16.7 µM (inactive)
SK-MEL-2
  GI50: 26 µM (inactive)
NCI-H226
  GI50: 16 µM (inactive)
SK-OV-3
  GI50: 78.2 µM (inactive)
